What follows are molecules tested against recombinant human PAI-1 (Homo sapiens, UniProt P05121) (assay: Test Example 2: Human PAI-1 Inhibitory Activity (pH 7.4 HEPES buffer, 10 minutes incubation with two-chain tPA)). Conditions: concentration that inhibits 50 % of the human PAI-1 activity, calculated from the inhibition rates of Test Example 2; read-out: IC50.
Format: biochemical
Design: purchased Molecular Innovations, Inc
Protocol: 0.1 M HEPES, 0.1 M NaCl. 1 mM EDTA. 0.1 % Polyethylene glycol 8,000 (Hampton Research Corporation),
2 mM Dimethyldecylphoshine oxide [Apo-10] (Fluka Corporation)

Sequence of recombinant human PAI-1 (P05121 24-402): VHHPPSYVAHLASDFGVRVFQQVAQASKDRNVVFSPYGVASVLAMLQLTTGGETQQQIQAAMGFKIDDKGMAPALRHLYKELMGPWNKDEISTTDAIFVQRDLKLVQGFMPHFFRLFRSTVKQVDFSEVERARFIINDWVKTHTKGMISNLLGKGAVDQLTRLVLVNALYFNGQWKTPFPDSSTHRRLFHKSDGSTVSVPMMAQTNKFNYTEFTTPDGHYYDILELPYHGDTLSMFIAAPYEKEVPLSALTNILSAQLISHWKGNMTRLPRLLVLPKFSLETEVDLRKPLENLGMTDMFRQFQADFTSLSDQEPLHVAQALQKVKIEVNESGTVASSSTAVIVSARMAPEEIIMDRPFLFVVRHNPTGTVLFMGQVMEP

Structure (SMILES)	IC50 [nM]
CCCCCCCc1ccc(-c2ccc(OC(F)(F)F)cc2)cc1N(CCCCc1ccccc1)C(=O)C(=O)O [Compound 371]	690

Same assay, conditions: read-out: Inhibition Rate of PAI-1 Activity (%)

inhibition at 0.1 µM [%]	inhibition at 0.3 µM [%]	inhibition at 1 µM [%]	inhibition at 3 µM [%]	inhibition at 10 µM [%]	inhibition at 25 µM [%]	Structure (SMILES)
4	19	> 99	> 99			CCCCCOc1cc(N(CCCCc2ccccc2)C(=O)C(=O)O)ccc1-c1ccc(OC(F)(F)F)cc1 [Compound 654]
11	11	39	61			O=C(O)CCCCCCOc1ccc(-c2ccc(OC(F)(F)F)cc2)cc1N(CCCCc1ccccc1)C(=O)C(=O)O [Compound 633]
0	15	94	95			CCCCCCC(Oc1cc(-c2ccc(OC(F)(F)F)cc2)ccc1Oc1ccc(C(F)(F)F)cc1)C(=O)O (stereo not shown) [Compound 327]
0	12	67	98			CC(C)(C)c1cccc(Oc2ccc(-c3ccc(OC(F)(F)F)cc3)cc2/C=C/C(=O)O)c1 [Compound 437]
		41	93	98	> 99	CC(C)(C)c1ccc(COc2ccc(N3CCN(c4ccc(OC(F)(F)F)cc4)CC3)cc2CCC(=O)O)cc1 [Compound 419]
7	9	77	> 99			CC(C)(C)[C@H]1CC[C@@H](CN(C(=O)C(=O)O)c2ccc(-c3ccc(OC(F)(F)F)cc3)cc2)CC1 [Compound 680]
0	3	96	> 99			CCCCCOc1ccc(-c2ccc(OCC(=O)O)c(Oc3ccc(C(C)(C)C)cc3)c2)cc1 [Compound 440]
10	17	87	98			CC(C)(C)c1ccc(-c2ccc(OCC(=O)O)c(Oc3cccc(C(C)(C)C)c3)c2)cc1 [Compound 465]
12	9	44	> 99			CC(C)(C)c1cccc(Oc2ccc(-c3ccc(OC(F)(F)F)cc3)cc2OCC(=O)O)c1 [Compound 439]
4	11	89	> 99			CCC(CC)Oc1ccc(-c2ccc(OCC(=O)O)c(Oc3ccc(C(C)(C)C)cc3)c2)cc1 [Compound 447]
2	8	19	97			O=C(O)COc1ccc(-c2ccc(OC(F)(F)F)cc2)cc1OCCCCc1ccccc1 [Compound 337]
1	5	86	97			CCCCOc1ccc(-c2ccc(OCC(=O)O)c(Oc3ccc(C(C)(C)C)cc3)c2)cc1 [Compound 468]
18	28	98	95			Cc1cc(C)cc(COc2ccc(-c3ccc(OC(F)(F)F)cc3)cc2N(CCCCc2ccccc2)C(=O)C(=O)O)c1 [Compound 662]
16	39	98	> 99			CC(C)c1ccc(Sc2cc(-c3ccc(OC(F)(F)F)cc3)ccc2/C=C/C(=O)O)cc1 [Compound 516]
11	17	> 99	> 99			CCCCCOc1ccc(-c2ccc(Oc3ccc(C(C)(C)C)cc3)c(OCC(=O)O)c2)cc1 [Compound 454]
25	82	> 99	> 99			CCC(CC)Oc1ccc(-c2ccc(/C=C/C(=O)O)c(Oc3ccc(C(C)(C)C)cc3)c2)cc1 [Compound 521]
2	11	43	> 99			O=C(O)CCc1ccc(-c2ccc(OC(F)(F)F)cc2)cc1Oc1ccc(C(F)(F)F)cc1 [Compound 474]
8	12	51	97			O=C(O)/C=C/c1ccc(-c2ccc(OC(F)(F)F)cc2)cc1Sc1ccccc1 [Compound 528]
10	14	95	> 99			O=C(O)C(=O)N(CCCCc1ccccc1)c1ccc(N2CCSCC2)c(-c2ccc(OC(F)(F)F)cc2)c1 [Compound 675]
0	12	87	98			CC(C)(C)c1ccc(Oc2cc(Oc3ccc(OC(F)(F)F)cc3)ccc2OCC(=O)O)cc1 [Compound 538]
0	9	31	97			O=C(O)C(=O)N(Cc1ccc(-c2ccc(OC(F)(F)F)cc2)cc1)c1ccccc1-c1ccccc1 [Compound 632]
4	9	88	> 99			CC(C)(C)c1ccc(Oc2cc(-c3ccccc3OC(F)(F)F)ccc2/C=C/C(=O)O)cc1 [Compound 466]
26	31	42	86			CC(C)(C)c1ccc(Oc2cc(-c3ccc(F)cc3)ccc2OCC(=O)O)cc1 [Compound 459]
11	15	78	> 99			CCCCOc1ccc(Oc2cc(-c3ccc(OC(F)(F)F)cc3)ccc2OCC(=O)O)cc1 [Compound 523]
14	16	79	94			CCCCC(Oc1cc(-c2cccc(C)c2)ccc1Oc1ccc(C(C)(C)C)cc1)C(=O)O (stereo not shown) [Compound 317]
9	11	58	98			CC(C)(C)c1ccc(Oc2cc(-c3ccc(OC(F)(F)F)cc3)ccc2/C=C\C(=O)O)cc1 [Compound 450]
14	54	> 99	> 99			CC(C)c1ccc(-c2ccc(/C=C/C(=O)O)c(Oc3ccc(C(C)(C)C)cc3)c2)cc1 [Compound 518]
0	9	27	98			CC(C)(C)c1ccc(Oc2ccc(-c3ccc(OC(F)(F)F)cc3)cc2OCC(=O)O)cc1 [Compound 302]
25	83	97	97			CCCCN(CC(=O)O)c1ccc(-c2ccc(OC(F)(F)F)cc2)cc1Oc1ccc(C(C)(C)C)cc1 [Compound 533]

Structure (SMILES)	inhibition at 0.1 µM [%]	inhibition at 0.3 µM [%]	inhibition at 1 µM [%]	inhibition at 3 µM [%]	inhibition at 10 µM [%]	inhibition at 25 µM [%]
CCCCCCCOc1ccc(-c2ccc(OC(F)(F)F)cc2)cc1N(CCCCc1ccccc1)C(=O)C(=O)O [Compound 352]	0	4	72	90		
CC(C)(C)c1ccc(Oc2cc(-c3ccc(OC(F)(F)F)cc3)ccc2CC(=O)O)cc1 [Compound 334]	0	1	21	87		
CCCCCCCc1ccc(-c2ccc(OC(F)(F)F)cc2)cc1N(CCCCc1ccccc1)C(=O)C(=O)O [Compound 371]	10	17	93	91		
CCCCC(Oc1ccc(-c2cccc(C(F)(F)F)c2)cc1Oc1ccc(C(C)(C)C)cc1)C(=O)O (stereo not shown) [Compound 320]	1	9	70	98		
O=C(O)C(=O)N(CCCCc1ccccc1)c1cc(-c2ccc(OC(F)(F)F)cc2)ccc1OCCCC1CCCC1 [Compound 355]	2	3	91	86		
CCCCC(Oc1cc(Oc2ccc(OC(F)(F)F)cc2)ccc1OCc1ccc(C(C)(C)C)cc1)C(=O)O (stereo not shown) [Compound 308]	0	22	63	95		
Cc1cccc(-c2ccc(OCC(=O)O)c(Oc3ccc(C(C)(C)C)cc3)c2)c1 [Compound 319]	0	9	17	70		
CCCCCOc1ccc(-c2ccc(OC(F)(F)F)cc2)cc1N(CCCOc1ccccc1)C(=O)C(=O)O [Compound 356]	7	13	53	> 99		
CCCCCOc1ccc(-c2ccccc2)cc1N(CCCCc1ccccc1)C(=O)C(=O)O [Compound 360]	5	8	35	92		
CCCCC(Oc1ccc(-c2ccc(OC(F)(F)F)cc2)cc1OCc1ccc(C(C)(C)C)cc1)C(=O)O (stereo not shown) [Compound 310]	11	19	72	96		
CCCCCOc1ccc(Oc2ccc(OC(F)(F)F)cc2)cc1N(CCCCc1ccccc1)C(=O)C(=O)O [Compound 363]	2	4	72	> 99		
CCCCCCCCOc1ccc(-c2ccc(OC(F)(F)F)cc2)cc1N(CCCCc1ccccc1)C(=O)C(=O)O [Compound 353]	6	19	87	87		
CCCCC(Oc1cc(-c2ccc(OC(F)(F)F)cc2)ccc1Oc1ccccc1)C(=O)O (stereo not shown) [Compound 307]	0	1	22	91		

— patent publication EP2272817A1, “PAI-1 INHIBITOR” (Institute of Medicinal Molecular Design, Inc., priority 2008, dated 2009)
